What was measured:
Experiment in all cases: scanMAX Kinase assay panel
Format in all cases: binding
Conditions in all cases: read-out: % control
[1] = target: ABL1(Q252H)-nonphosphorylated (Homo sapiens (Human), UniProt P00519, Q252H)
How it was run: (§1)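 Each compound is run against the kinase on the scanMAX selectivity panel. Its signal is then expressed relative to a DMSO negative control (100%) and a positive control compound (0%).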

[2] = target: BRAF (Homo sapiens (Human), UniProt P15056)
How it was run: as §1

[3] = target: BUB1 (Homo sapiens (Human), UniProt O43683)
How it was run: as §1

[4] = target: CAMK2D (Homo sapiens (Human), UniProt Q13557)
How it was run: as §1

[5] = target: CDC2L2 (Homo sapiens (Human), UniProt Q9UQ88)
How it was run: as §1

[6] = target: CSNK1G3 (Homo sapiens (Human), UniProt Q9Y6M4)
How it was run: as §1

[7] = target: DAPK1 (Homo sapiens (Human), UniProt P53355)
How it was run: as §1

[8] = target: DCAMKL1 (Homo sapiens (Human), UniProt O15075)
How it was run: as §1

[9] = target: EGFR(S752-I759del) (Homo sapiens (Human), UniProt P00533, DEL752-759)
How it was run: as §1

[10] = target: EGFR(T790M) (Homo sapiens (Human), UniProt P00533, T790M)
How it was run: as §1

[11] = target: EPHA6 (Homo sapiens (Human), UniProt Q9UF33)
How it was run: as §1

[12] = target: ERN1 (Homo sapiens (Human), UniProt O75460)
How it was run: as §1

[13] = target: GRK2 (Homo sapiens (Human), UniProt P25098)
How it was run: as §1

[14] = target: HIPK2 (Homo sapiens (Human), UniProt Q9H2X6)
How it was run: as §1

[15] = target: IRAK3 (Homo sapiens (Human), UniProt Q9Y616)
How it was run: as §1

[16] = target: LCK (Homo sapiens (Human), UniProt P06239)
How it was run: as §1

[17] = target: MAP3K1 (Homo sapiens (Human), UniProt Q13233)
How it was run: as §1

[18] = target: MAPKAPK5 (Homo sapiens (Human), UniProt Q8IW41)
How it was run: as §1

[19] = target: MKK7 (Homo sapiens (Human), UniProt O14733)
How it was run: as §1

[20] = target: MST3 (Homo sapiens (Human), UniProt Q9Y6E0)
How it was run: as §1

[21] = target: NEK10 (Homo sapiens (Human), UniProt Q6ZWH5)
How it was run: as §1

[22] = target: PHKG1 (Homo sapiens (Human), UniProt Q16816)
How it was run: as §1

[23] = target: PIK3CA(H1047Y) (Homo sapiens (Human), UniProt P42336, H1047Y)
How it was run: as §1

[24] = target: PIK3CA(I800L) (Homo sapiens (Human), UniProt P42336, I800L)
How it was run: as §1

[25] = target: PRKCH (Homo sapiens (Human), UniProt P24723)
How it was run: as §1

[26] = target: RPS6KA4(Kin.Dom.2-C-terminal) (Homo sapiens (Human), UniProt O75676)
How it was run: as §1

[27] = target: RPS6KA5(Kin.Dom.2-C-terminal) (Homo sapiens (Human), UniProt O75582)
How it was run: as §1

[28] = target: RSK4(Kin.Dom.1-N-terminal) (Homo sapiens (Human), UniProt Q9UK32)
How it was run: as §1

[29] = target: SRPK1 (Homo sapiens (Human), UniProt Q96SB4)
How it was run: as §1

[30] = target: STK35 (Homo sapiens (Human), UniProt Q8TDR2)
How it was run: as §1

[31] = target: SYK (Homo sapiens (Human), UniProt P43405)
How it was run: as §1

[32] = target: TLK2 (Homo sapiens (Human), UniProt Q86UE8)
How it was run: as §1

[33] = target: TSSK3 (Homo sapiens (Human), UniProt Q96PN8)
How it was run: as §1

[34] = target: TTK (Homo sapiens (Human), UniProt P33981)
How it was run: as §1

[35] = target: TYK2(JH2domain-pseudokinase) (Homo sapiens (Human), UniProt P29597)
How it was run: as §1

[36] = target: VEGFR2 (Homo sapiens (Human), UniProt P35968)
How it was run: as §1

[37] = target: YSK1 (Homo sapiens (Human), UniProt O00506)
How it was run: as §1

[38] = target: YSK4 (Homo sapiens (Human), UniProt Q56UN5)
How it was run: as §1

TTK, sequence (P33981 whole entry): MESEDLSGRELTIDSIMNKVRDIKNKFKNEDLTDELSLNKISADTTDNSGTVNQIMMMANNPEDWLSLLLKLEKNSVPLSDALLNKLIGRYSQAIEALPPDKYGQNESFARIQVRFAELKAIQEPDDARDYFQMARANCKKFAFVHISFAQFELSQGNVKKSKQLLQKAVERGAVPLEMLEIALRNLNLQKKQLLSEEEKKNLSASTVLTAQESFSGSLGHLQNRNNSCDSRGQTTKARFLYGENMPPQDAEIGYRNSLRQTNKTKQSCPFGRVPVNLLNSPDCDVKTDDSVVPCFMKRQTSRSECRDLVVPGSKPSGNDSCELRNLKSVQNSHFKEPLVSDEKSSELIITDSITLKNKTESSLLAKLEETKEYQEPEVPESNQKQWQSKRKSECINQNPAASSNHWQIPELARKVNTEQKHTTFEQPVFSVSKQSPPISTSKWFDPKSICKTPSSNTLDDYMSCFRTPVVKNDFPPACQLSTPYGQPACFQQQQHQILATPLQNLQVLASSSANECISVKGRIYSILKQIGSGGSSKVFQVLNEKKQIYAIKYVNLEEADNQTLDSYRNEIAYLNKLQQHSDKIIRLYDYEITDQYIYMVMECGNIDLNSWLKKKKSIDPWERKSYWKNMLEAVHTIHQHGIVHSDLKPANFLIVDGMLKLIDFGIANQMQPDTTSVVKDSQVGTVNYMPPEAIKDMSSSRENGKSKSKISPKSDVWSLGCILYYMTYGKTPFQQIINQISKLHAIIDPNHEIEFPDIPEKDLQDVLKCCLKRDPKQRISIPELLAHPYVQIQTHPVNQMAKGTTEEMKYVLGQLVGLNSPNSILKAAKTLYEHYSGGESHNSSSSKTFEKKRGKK
STK35, sequence (Q8TDR2 whole entry): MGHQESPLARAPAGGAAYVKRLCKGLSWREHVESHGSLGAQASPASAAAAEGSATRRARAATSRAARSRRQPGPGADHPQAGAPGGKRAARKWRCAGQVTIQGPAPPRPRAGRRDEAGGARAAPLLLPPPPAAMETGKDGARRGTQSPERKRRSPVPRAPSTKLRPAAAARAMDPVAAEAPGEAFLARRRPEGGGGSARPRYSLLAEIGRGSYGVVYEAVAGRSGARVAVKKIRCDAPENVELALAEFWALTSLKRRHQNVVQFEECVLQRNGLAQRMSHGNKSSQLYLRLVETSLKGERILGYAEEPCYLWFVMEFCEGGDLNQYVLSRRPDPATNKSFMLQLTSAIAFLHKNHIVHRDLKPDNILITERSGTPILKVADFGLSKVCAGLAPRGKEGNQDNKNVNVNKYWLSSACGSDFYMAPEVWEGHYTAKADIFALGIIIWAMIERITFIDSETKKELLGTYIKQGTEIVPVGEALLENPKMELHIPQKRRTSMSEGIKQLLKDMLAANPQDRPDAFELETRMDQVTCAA
CAMK2D, sequence (Q13557 whole entry): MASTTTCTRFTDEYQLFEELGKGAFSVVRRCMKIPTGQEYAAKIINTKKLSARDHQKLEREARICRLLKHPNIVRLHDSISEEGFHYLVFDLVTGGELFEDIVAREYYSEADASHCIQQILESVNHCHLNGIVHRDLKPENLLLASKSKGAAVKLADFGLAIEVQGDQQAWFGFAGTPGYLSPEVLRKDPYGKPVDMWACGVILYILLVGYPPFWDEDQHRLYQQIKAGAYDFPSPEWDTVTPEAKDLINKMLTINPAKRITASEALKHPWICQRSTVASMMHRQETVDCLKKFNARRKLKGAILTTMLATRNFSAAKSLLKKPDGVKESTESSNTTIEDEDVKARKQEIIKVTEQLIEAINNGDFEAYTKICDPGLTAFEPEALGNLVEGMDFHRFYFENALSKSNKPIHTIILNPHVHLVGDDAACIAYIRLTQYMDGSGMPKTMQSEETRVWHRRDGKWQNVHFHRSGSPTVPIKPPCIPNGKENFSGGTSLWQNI
MKK7, sequence (O14733 whole entry): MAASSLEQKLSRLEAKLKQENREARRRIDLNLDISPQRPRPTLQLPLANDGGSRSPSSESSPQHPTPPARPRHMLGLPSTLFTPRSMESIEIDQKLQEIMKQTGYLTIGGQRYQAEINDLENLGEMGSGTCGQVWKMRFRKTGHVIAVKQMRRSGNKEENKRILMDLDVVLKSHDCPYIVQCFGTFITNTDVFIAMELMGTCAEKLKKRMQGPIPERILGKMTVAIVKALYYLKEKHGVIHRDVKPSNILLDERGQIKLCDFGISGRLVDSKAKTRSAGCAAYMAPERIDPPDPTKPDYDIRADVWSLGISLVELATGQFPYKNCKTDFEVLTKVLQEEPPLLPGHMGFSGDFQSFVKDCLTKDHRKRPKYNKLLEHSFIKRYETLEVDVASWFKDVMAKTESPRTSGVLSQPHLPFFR
SRPK1, sequence (Q96SB4 whole entry): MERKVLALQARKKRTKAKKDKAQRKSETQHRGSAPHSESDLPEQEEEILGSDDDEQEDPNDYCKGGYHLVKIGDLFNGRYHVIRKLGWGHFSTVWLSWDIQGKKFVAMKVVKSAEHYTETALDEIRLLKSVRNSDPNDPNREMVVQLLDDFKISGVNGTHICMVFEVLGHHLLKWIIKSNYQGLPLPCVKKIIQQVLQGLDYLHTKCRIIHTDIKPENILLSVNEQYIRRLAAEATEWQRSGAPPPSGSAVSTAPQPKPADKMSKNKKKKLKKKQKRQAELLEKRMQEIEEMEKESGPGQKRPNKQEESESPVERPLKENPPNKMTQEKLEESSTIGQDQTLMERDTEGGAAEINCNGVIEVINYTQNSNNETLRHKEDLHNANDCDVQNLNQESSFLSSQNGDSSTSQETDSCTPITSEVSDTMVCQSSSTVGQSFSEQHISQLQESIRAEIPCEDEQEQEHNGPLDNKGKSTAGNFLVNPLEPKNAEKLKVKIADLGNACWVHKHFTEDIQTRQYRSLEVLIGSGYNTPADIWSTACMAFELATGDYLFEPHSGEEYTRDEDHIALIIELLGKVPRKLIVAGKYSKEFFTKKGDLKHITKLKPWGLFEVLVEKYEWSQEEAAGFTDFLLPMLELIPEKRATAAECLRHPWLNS
IRAK3, sequence (Q9Y616 whole entry): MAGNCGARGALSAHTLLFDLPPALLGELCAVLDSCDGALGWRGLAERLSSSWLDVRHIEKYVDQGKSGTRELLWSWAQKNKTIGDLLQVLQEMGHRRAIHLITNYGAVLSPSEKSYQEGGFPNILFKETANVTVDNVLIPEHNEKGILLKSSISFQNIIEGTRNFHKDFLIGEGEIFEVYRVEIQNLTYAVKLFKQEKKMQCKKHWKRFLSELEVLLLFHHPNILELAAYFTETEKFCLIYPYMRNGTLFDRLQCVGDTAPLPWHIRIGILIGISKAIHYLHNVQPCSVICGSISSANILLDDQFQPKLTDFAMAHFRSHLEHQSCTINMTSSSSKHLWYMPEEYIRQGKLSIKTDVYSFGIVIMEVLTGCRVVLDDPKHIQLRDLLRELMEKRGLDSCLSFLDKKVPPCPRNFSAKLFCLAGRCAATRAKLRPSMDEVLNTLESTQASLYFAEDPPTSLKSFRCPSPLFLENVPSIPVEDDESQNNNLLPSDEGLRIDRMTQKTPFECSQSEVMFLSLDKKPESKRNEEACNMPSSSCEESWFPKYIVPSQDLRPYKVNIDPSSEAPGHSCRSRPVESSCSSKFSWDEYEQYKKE
CSNK1G3, sequence (Q9Y6M4 whole entry): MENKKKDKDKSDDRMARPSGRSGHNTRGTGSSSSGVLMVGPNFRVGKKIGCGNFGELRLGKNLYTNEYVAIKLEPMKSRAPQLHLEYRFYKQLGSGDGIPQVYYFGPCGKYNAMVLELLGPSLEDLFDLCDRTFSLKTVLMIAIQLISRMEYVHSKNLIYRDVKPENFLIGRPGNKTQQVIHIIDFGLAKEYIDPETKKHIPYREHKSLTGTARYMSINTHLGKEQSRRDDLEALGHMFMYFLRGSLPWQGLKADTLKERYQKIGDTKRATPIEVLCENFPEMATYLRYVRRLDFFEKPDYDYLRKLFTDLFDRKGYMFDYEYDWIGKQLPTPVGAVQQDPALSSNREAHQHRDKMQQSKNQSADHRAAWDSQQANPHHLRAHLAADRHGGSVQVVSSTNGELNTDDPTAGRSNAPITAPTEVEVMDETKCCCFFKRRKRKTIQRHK
BRAF, sequence (P15056 whole entry): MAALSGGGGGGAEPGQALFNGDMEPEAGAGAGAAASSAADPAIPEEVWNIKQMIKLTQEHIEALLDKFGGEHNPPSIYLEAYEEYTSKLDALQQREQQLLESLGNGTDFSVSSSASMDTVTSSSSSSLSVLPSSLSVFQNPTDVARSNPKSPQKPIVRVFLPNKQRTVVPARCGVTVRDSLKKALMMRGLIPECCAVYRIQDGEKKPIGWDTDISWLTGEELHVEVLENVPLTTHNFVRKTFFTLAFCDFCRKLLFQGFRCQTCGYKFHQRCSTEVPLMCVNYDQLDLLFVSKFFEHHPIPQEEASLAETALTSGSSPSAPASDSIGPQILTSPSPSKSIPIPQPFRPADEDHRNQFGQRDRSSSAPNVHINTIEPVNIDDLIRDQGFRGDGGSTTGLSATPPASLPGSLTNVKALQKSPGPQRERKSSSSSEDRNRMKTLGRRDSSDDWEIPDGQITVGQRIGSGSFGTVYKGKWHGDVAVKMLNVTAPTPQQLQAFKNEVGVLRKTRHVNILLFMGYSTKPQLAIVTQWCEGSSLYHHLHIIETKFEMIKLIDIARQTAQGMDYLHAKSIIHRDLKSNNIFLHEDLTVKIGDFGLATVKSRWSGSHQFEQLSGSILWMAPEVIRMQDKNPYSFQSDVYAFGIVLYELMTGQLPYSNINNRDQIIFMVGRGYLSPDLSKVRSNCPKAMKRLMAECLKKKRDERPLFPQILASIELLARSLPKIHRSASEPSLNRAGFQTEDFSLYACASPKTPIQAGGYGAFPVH

Compound | remaining binding at 1 µM [1] [%] | remaining binding at 1 µM [2] [%] | remaining binding at 1 µM [3] [%] | remaining binding at 1 µM [4] [%] | remaining binding at 1 µM [5] [%] | remaining binding at 1 µM [6] [%] | remaining binding at 1 µM [7] [%] | remaining binding at 1 µM [8] [%] | remaining binding at 1 µM [9] [%] | remaining binding at 1 µM [10] [%] | remaining binding at 1 µM [11] [%] | remaining binding at 1 µM [12] [%] | remaining binding at 1 µM [13] [%] | remaining binding at 1 µM [14] [%] | remaining binding at 1 µM [15] [%] | remaining binding at 1 µM [16] [%] | remaining binding at 1 µM [17] [%] | remaining binding at 1 µM [18] [%] | remaining binding at 1 µM [19] [%] | remaining binding at 1 µM [20] [%] | also measured
CCNc1cc(Nc2ccc(C(=O)N3CCC(N4CCOCC4)CC3)cc2OC)nc2[nH]cc(C#N)c12 [Example 18, 4-(ethylamino)-6-((2-methoxy-4-(4-morpholinopiperidine-1-carbonyl)phenyl)amino)-1H-pyrrolo[2,3-b]pyridine-3-carbonitrile] | 95 | 83 | 76 | 82 | 86 | 7.1 | 16 | 85 | 99 | 100 | 98 | 24 | 71 | 68 | 84 | 96 | 90 | 43 | 89 | 88 | remaining binding at 1 µM [21]: 73%; remaining binding at 1 µM [22]: 16%; remaining binding at 1 µM [23]: 71%; remaining binding at 1 µM [24]: 100%; remaining binding at 1 µM [25]: 95%; remaining binding at 1 µM [26]: 0.3%; remaining binding at 1 µM [27]: 10%; remaining binding at 1 µM [28]: 81%; remaining binding at 1 µM [29]: 89%; remaining binding at 1 µM [30]: 85%; remaining binding at 1 µM [31]: 66%; remaining binding at 1 µM [32]: 98%; remaining binding at 1 µM [33]: 30%; remaining binding at 1 µM [34]: 8.9%; remaining binding at 1 µM [35]: 67%; remaining binding at 1 µM [36]: 63%; remaining binding at 1 µM [37]: 99%; remaining binding at 1 µM [38]: 6.7%
CCNc1cc(Nc2ccc(C(=O)N3CCC(N4CCOCC4)CC3)cc2OC)nc2[nH]cc(C(F)(F)F)c12 [Example 57, (4-((4-(ethylamino)-3-(trifluoromethyl)-1H-pyrrolo[2,3-b]pyridin-6-yl)amino)-3-methoxyphenyl) (4-morpholinopiperidin-1-yl)methanone] | 54 | 98 | 99 | 47 | 88 | 89 | 70 | 86 | 75 | 88 | 87 | 61 | 95 | 100 | 79 | 90 | 79 | 100 | 93 | 84 | remaining binding at 1 µM [21]: 100%; remaining binding at 1 µM [22]: 26%; remaining binding at 1 µM [23]: 73%; remaining binding at 1 µM [24]: 69%; remaining binding at 1 µM [25]: 99%; remaining binding at 1 µM [26]: 100%; remaining binding at 1 µM [27]: 83%; remaining binding at 1 µM [28]: 100%; remaining binding at 1 µM [29]: 85%; remaining binding at 1 µM [30]: 98%; remaining binding at 1 µM [31]: 68%; remaining binding at 1 µM [32]: 88%; remaining binding at 1 µM [33]: 91%; remaining binding at 1 µM [34]: 67%; remaining binding at 1 µM [35]: 100%; remaining binding at 1 µM [36]: 95%; remaining binding at 1 µM [37]: 73%; remaining binding at 1 µM [38]: 100%
